From patent US9446026B2, “Ocular formulations for drug-delivery to the posterior segment of the eye” (PanOptica, Inc., priority 2013, dated 2016)
Like-named read-outs stand apart in the source and are kept apart here.

Legend:
[1] = Ocular fluid and tissue concentrations, 0.4% Compound-I cyclodextrin solutions (Example 7, 24-day study); format: in vivo, Dutch-Belted rabbits; conditions: Dutch-Belted, rabbit, topical
Protocol: The ocular solution of Compound-I comprising cyclodextrin was prepared and tested in different groups of animals.

[2] = pKa (water) of Compound-I drug substance; format: physicochemical
Source text: (§1) The embodiments provide three formulations of Compound-I or its free base—the Formula II compound.

[3] = Solubility of Compound-I drug substance; format: physicochemical
Source text: as §1

[4] = design: species or system Dutch-Belted rabbits and beagle dogs; conditions: in vivo
Source text: Animals that received topical ocular administration of the tromethamine-based suspension were able to tolerate up to higher level of the active agent concentration in the formulation, as compared to equimolar formulations of the sodium phosphate-based Gel Drop.
Overall, the combination of decreased corneal exposure and corresponding improved ocular tolerability, while simultaneously maintaining or promoting drug delivery to the posterior segment target tissues, along with improved physicochemical stability, will provide greater benefit to patients compared to the ophthalmic Gel Drop formulation.
(§2) Retinal function was normal in all test article and vehicle treated groups during full-field electroretinograms performed in rabbits.

[5] = Ocular toxicology: clinical ophthalmic and microscopic examinations; format: in vivo, Dutch-Belted rabbits
Source text: as §2

[6] = Solubility of Compound-I in cyclodextrin ophthalmic solution; format: physicochemical; conditions: HP-β-CD at ≥1:6 molar ratio or SBE-β-CD at ≥1:2 ratio
[7] = Ocular tissue concentrations, 0.3% Compound-I ophthalmic gel drop twice daily (toxicology study); format: in vivo, Dutch-Belted rabbits
[8] = Dutch-Belted (rabbit), beagle (dog), rabbit, dog
[9] = 0.3% Ophthalmic Gel Drop, Twice Daily 29 days
[10] = 0.3% ophthalmic gel drop with and without benzylalkonium chloride, twice daily, Dutch-Belted rabbits

**Q.** Which concentration at 1 h ([1]; central retina, 0.4 % (4 mg/mL), 30 μL/eye, Average concentration of Compound-I, Central Retina, Group 11: 0.4% Compound-I in 4.88% CAPTISOL, […] phosphate, 30 μL/eye, 2 doses per day) does the source give for `Cl.NC(=O)c1c(OCc2c(F)cc(Br)cc2F)nsc1NC(=O)NCCCCN1CCCC1` [Compound-I, 3-[(4-bromo-2,6-difluorophenyl)methoxy]-5-[[[[4-(1-pyrrolidinyl)butyl]amino]carbonyl]amino]-4-isothiazolecarboxamide hydrochloride] here?
**A.** 0.101 µM

**Q.** What about the concentration at 1 h ([1]; central retina, 0.4 %, Central retina concentration of Compound-I (range over groups), 0.4% Compound-I cyclodextrin solutions (KLEPTOSE or CAPTISOL), twice daily) of the same compound?
**A.** 0.0531 to 0.124 µM

**Q.** What about the concentration at 1 h ([1]; cornea, 0.4 %) of the same compound?
**A.** 6.49 to 30 µM

**Q.** What about the concentration at 1 h ([1]; cornea, 0.4 % (4 mg/mL), 0.4% Ophthalmic Solution (CAPTISOL), Twice Daily 24 days, read-out: Cornea [Compound I]) of the same compound?
**A.** 6.49 µM

**Q.** What about the concentration at 1 h ([1]; cornea, 0.4 % (4 mg/mL), 0.4% Ophthalmic Solution (KLEPTOSE HP), Twice Daily 24 days, read-out: Cornea [Compound I]) of the same compound?
**A.** 8.05 µM

**Q.** And the concentration at 1 h ([1]; cornea, 0.4 % (4 mg/mL), 0.4% Ophthalmic Solution (KLEPTOSE HPB), Twice Daily 24 days, read-out: Cornea [Compound I])?
**A.** 12.3 µM

**Q.** And the concentration at 1 h ([1]; cornea, 0.4 % (4 mg/mL), 30 μL/eye, Average concentration of Compound-I, Cornea, Group 8: 0.4% Compound-I in 8.41% KLEPTOSE HPB, 0.142% phosphate, 30 μL/eye, 2 doses per day)?
**A.** 12.3 µM

**Q.** What about the concentration at 1 h ([1]; cornea, 0.4 % (4 mg/mL), 30 μL/eye, Average concentration of Compound-I, Cornea, Group 9: 0.4% Compound-I in […] KLEPTOSE HPB, 0.142% phosphate, 30 μL/eye, 2 doses per day) of the same compound?
**A.** 8.05 µM

**Q.** And the concentration at 1 h ([1]; cornea, 0.4 % (4 mg/mL), 30 μL/eye, Average concentration of Compound-I, Cornea, Group 10: 0.4% Compound-I in 4.88% CAPTISOL, 0.142% phosphate, 30 μL/eye, 2 doses per day)?
**A.** 6.49 µM

**Q.** What about the concentration at 1 h ([1]; cornea, 0.4 % (4 mg/mL), 30 μL/eye, Average concentration of Compound-I, Cornea, Group 11: 0.4% Compound-I in 4.88% CAPTISOL, […] phosphate, 30 μL/eye, 2 doses per day) of the same compound?
**A.** 30 µM

**Q.** What about the pKa [2] of the same compound?
**A.** 10.5

**Q.** And the solubility ([3]; 0.1N HCl, simulated gastric fluid)?
**A.** 40 µg/mL

**Q.** And the solubility ([3]; 0.1N NaOH, aqueous buffer)?
**A.** 50 µg/mL

**Q.** And the solubility ([3]; acetonitrile, organic solvent or mixture)?
**A.** 40 µg/mL

**Q.** And the solubility ([3]; aqueous buffer, pH 7.5 (0.05M NaH2PO4))?
**A.** 1000 µg/mL

**Q.** And the solubility ([3]; aqueous buffer, pH 9.0 (0.05m Na2HPO4))?
**A.** 700 µg/mL

**Q.** And the solubility ([3]; deionized water, water)?
**A.** 500 to 1200 µg/mL

**Q.** And the solubility ([3]; ethanol, organic solvent or mixture)?
**A.** 700 µg/mL

**Q.** What about the solubility ([3]; hexanes, organic solvent or mixture) of the same compound?
**A.** < 10 µg/mL

**Q.** What about the solubility ([3]; methanol, organic solvent or mixture) of the same compound?
**A.** 4300 µg/mL

**Q.** And the solubility ([3]; tetrahydrofuran, organic solvent or mixture)?
**A.** 20 µg/mL

**Q.** And the “Corneal exposure of ophthalmic solution lower than equimolar ophthalmic gel drops” value [4, 8]?
**A.** 5 to 10 fold

**Q.** What about the “Corneal tissue exposure with ophthalmic gel drops” value [4, 8] of the same compound?
**A.** ≥ 100 µM

**Q.** What about the “Alterations of deeper structures of the eye or optic nerve, ophthalmic gel drops” value [4] of the same compound?
**A.** No untoward alterations

**Q.** What about the “Clinical or histopathologic findings with ophthalmic solution” value [4] of the same compound?
**A.** free of untoward clinical or histopathologic findings

**Q.** And the “Microscopic evaluation of eyes, Tris-based suspension” value ([5]; 0.3% w/v twice daily for 30 days)?
**A.** considered normal

**Q.** What about the “Findings attributed to test-article after 30 days of 0.6% cyclodextrin-based solution” value ([5]; Dutch-belted rabbits, topical ocular) of the same compound?
**A.** no untoward findings

**Q.** What about the “Tolerability of HP-β-CD cyclodextrin-based solutions, 30 days” value ([5]; rabbit, in vivo) of the same compound?
**A.** well tolerated

**Q.** And the “Tolerability of Tris-based suspension formulations” value ([5]; rabbit, in vivo)?
**A.** well tolerated

**Q.** What about the “Tolerability of cyclodextrin-based solutions, 24 days” value ([5]; rabbit, in vivo) of the same compound?
**A.** well-tolerated

**Q.** What about the “Retinal function, full-field electroretinograms” value ([5]; rabbits, all test article treated groups) of the same compound?
**A.** normal

**Q.** What about the “Compound-I dose strengths solubilised by cyclodextrin” value [6] of the same compound?
**A.** 0.1-1.0%

**Q.** And the “Central Choroid [Compound I]” value [7, 9]?
**A.** 0.340 µM

**Q.** What about the “Cornea [Compound I]” value [7, 9] of the same compound?
**A.** 236.00 µM

**Q.** What about the “Mean ocular tissue concentration, aqueous humor” value [7, 10] of the same compound?
**A.** 0.0197 to 0.0395 µM

**Q.** And the “Mean ocular tissue concentration, peripheral choroid” value [7, 10]?
**A.** 2.79 to 4.10 µM

**Q.** And the “Mean ocular tissue concentration, peripheral retina” value [7, 10]?
**A.** 0.150 to 0.309 µM
